In patent US20230348475A1, “IMIDAZOPYRIDAZINE AND IMIDAZOPYRAZINE COMPOUNDS AS INHIBITORS OF CDK7” (THE TRANSLATIONAL GENOMICS RESEARCH INSTITUTE, priority 2020, published 2023):
Structures can show the parent of a compound that is named as a salt.

What was measured:
CDK7/CycH/MAT1 = CDK7/CycH/MAT1 (Homo sapiens, UniProt P50613); test: Kinase Glo (ADP-Glo) biochemical assay, CDK7; conditions: CDK7/CycH/MAT1 40 ng, ATP 1 μM, 60 minutes at RT, luminescence
Protocol: Materials: • Assay Buffer: 50 mM HEPES, 3 mM MgCl2, 3 mM MnCl2, 1 mM DTT, 3 μM Na3VO4, pH 7.5 • Substrate RB • CTF Peptide (ProQinase #: 0040-0000-6) • Enzymes • CDK7/CycH/MAT1 (ProQinase #: 0366-0360-4) • ADP-Glo™ Assay (Promega #: V9101) • ATP: 10 mM • ADP-Glo™ Reagent • Kinase Detection Reagent • 384-well white assay plates
A ten point serial dilution of compound was prepared at 5X concentration in assay buffer with the final assay concentrations starting at 30 μM, 10 μM, 3 μM, 1 μM . . . 0 μM. Enzyme, substrate, and ATP were used at 40 ng, 200 ng (or 400 ng)* and 1 μM, respectively. The assay plate was set up by mixing the components in a total reaction volume of 10 μL per well. The plate was centrifuged gently for 10 seconds and incubated at room temperature (RT) for 60 minutes in the dark. The ADP-Glo Reagent and kinase detection reagent were added and incubated as recommended. The reaction was quantified by measuring luminescence on the Perkin Elmer Envision plate reader.

[1] = test system: MiaPaCa2 pancreatic cancer cell line; test: Cell viability assay (Cell Titer Glo), MiaPaCa2; format: cell-based; conditions: Homo sapiens, MIA PaCa-2; Table 7a; pancreatic cancer cell line, 72 hour incubation
Protocol: (§1) Materials: • Cell Lines (Treated according to ATCC guidelines) • Cell Titer Glo (Promega Cat #G7572) • DMSO • 96-well White Tissue Culture Treated Plates (Perkin Elmer Cat #60005680)
(§2) Cells were seeded in a white 96-well tissue culture treated plate at a density of 1500 cells in 90 μL of media per well and allowed to settle overnight. A ten point serial dilution of drugs was prepared at 10×concentration in media with the final assay concentrations starting at 30 μM, 10 μM, 3 μM, 1 μM, 0.3 μM . . . 0 μM. A dilution of DMSO was included as a control. The assay was set up by adding 10 μL of the corresponding drug to each well in duplicate, followed by a 72 hour incubation at 37° C., 5% CO2. Cell viability was quantified by adding 90 μL of Cell Titer Glo to each well and incubating at room temperature for 10 minutes. The reaction was quantified by measuring luminescence using the Envision Plate Reader. Data was analyzed using Graphpad Prism 7 software.

[2] = test system: HPAC pancreatic cancer cell line; test: Cell viability assay (Cell Titer Glo), HPAC; format: cell-based; conditions: Homo sapiens, HPAC; Table 7a; pancreatic cancer cell line, 72 hour incubation
Protocol: as §1, §2

[3] = test system: Kasumi1 leukemia cancer cell line; test: Cell viability assay (Cell Titer Glo), Kasumi1; format: cell-based; conditions: Homo sapiens, Kasumi 1, Table 7a, 72 hour incubation
Protocol: as §1, §2

[4] = test system: A673 Ewingsarcoma cell line; test: Cell viability assay (Cell Titer Glo), A673; format: cell-based; conditions: Homo sapiens, A673, Table 7a, 72 hour incubation
Protocol: as §1, §2

[5] = test system: A2780 ovarian cancer cell line; test: Cell viability assay (Cell Titer Glo), A2780; format: cell-based; conditions: Homo sapiens, A2780, Table 7a, 72 hour incubation
Protocol: as §1, §2

Sequence of CDK7/CycH/MAT1 (P50613 whole entry): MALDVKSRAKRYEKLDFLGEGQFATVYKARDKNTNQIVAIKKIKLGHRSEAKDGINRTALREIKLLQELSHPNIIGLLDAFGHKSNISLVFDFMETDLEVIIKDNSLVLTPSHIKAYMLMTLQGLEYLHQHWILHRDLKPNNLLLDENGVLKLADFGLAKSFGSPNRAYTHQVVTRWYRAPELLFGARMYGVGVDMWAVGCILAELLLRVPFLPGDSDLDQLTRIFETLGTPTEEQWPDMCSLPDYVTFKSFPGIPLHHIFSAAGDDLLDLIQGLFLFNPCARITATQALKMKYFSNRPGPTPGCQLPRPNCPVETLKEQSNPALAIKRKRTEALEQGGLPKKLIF
Sequence of CDK7/CycH/MAT1 (P51946 whole entry partner): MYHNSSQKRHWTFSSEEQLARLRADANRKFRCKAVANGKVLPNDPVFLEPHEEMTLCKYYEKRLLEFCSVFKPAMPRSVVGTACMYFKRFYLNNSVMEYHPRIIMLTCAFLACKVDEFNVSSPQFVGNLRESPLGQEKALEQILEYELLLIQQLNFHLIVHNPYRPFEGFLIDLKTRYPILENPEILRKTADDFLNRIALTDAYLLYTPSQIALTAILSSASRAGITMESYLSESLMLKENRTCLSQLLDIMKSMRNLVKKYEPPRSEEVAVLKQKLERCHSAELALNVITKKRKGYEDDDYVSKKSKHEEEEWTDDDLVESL
Sequence of CDK7/CycH/MAT1 (P51948 whole entry partner): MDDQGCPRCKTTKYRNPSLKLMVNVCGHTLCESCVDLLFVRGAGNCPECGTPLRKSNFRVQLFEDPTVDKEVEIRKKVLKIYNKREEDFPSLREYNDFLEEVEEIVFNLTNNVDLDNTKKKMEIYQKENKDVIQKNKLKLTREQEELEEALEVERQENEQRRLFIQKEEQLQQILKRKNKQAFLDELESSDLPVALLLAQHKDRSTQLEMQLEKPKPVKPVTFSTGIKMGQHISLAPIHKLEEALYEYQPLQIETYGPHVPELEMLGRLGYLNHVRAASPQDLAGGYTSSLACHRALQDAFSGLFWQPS

SMILES | IC50 (CDK7/CycH/MAT1) [nM] | IC50 [1] [nM] | IC50 [2] [nM] | IC50 [3] [nM] | IC50 [4] [nM] | IC50 [5] [nM]
CC(C)c1cnc2c(NCc3ccccc3N(C)C)cc(SC3CCNCC3)nn12 [Compound 64, N-(2-(dimethylamino)benzyl)-3-isopropyl-6-(piperidin-4-ylthio)imidazo[1,2-b]pyridazin-8-amine hydrochloride] | < 100 | < 1000 | 1000 to 5000 | < 1000 | < 1000 | –
CC(C)c1cnc2c(NCc3ccccc3OC(F)(F)F)cc(OC3CCNCC3F)nn12 (centres unmarked) [Compound 70, 6-((3-fluoropiperidin-4-yl)oxy)-3-isopropyl-N-(2-(trifluoromethoxy)benzyl)imidazo[1,2-b]pyridazin-8-amine hydrochloride] | < 100 | 1000 to 5000 | 1000 to 5000 | 1000 to 5000 | – | 1000 to 5000
CC(C)c1cnc2c(NCc3ccccc3-n3cccn3)cc(SC3CCCNC3)nn12 (centres unmarked) [Compound 63, N-(2-(1H-pyrazol-1-yl)benzyl)-3-isopropyl-6-(piperidin-3-ylthio)imidazo[1,2-b]pyridazin-8-amine hydrochloride] | < 100 | < 1000 | < 1000 | < 1000 | 1000 to 5000 | –
CC(C)c1cnc2c(NCc3ccccc3C(F)(F)F)cc(SC3CCNCC3F)nn12 (centres unmarked) [Compound 77, 6-((3-fluoropiperidin-4-yl)thio)-3-isopropyl-N-(2-(trifluoromethyl)benzyl)imidazo[1,2-b]pyridazin-8-amine hydrochloride] | < 100 | 1000 to 5000 | 1000 to 5000 | 1000 to 5000 | – | 1000 to 5000
CC(C)c1cnc2c(NCc3ccc(F)cc3F)cc(SC3CCNCC3)nn12 [Compound 56, N-(2,4-difluorobenzyl)-3-isopropyl-6-(piperidin-4-ylthio)imidazo[1,2-b]pyridazin-8-amine hydrochloride] | < 100 | < 1000 | < 1000 | 1000 to 5000 | – | < 1000
Fc1cccc(Nc2cc(O[C@@H]3CCNC3)nn3c(C4CC4)cnc23)c1 [Compound 6, (R)-3-cyclopropyl-N-(3-fluorophenyl)-6-(pyrrolidin-3-yloxy)imidazo[1,2-b]pyridazin-8-amine] | < 100 | 1000 to 5000 | < 1000 | 1000 to 5000 | – | 1000 to 5000
CN1CCC[C@H](Oc2cc(NCc3ccccc3)c3ncc(C4CC4)n3n2)C1 [Compound 11, (S)—N-benzyl-3-cyclopropyl-6-((1-methylpiperidin-3-yl)oxy)imidazo[1,2-b]pyridazin-8-amine] | 100 to 1000 | – | – | – | – | –
c1ccc(CNc2cc(SC3CCNCC3)nn3c(C4CC4)cnc23)cc1 [Compound 18, N-benzyl-3-cyclopropyl-6-(piperidin-4-ylthio)imidazo[1,2-b]pyridazin-8-amine hydrochloride] | < 100 | – | – | – | – | –
CC(C)c1cnc2c(NCc3ccccc3-n3cccn3)cc(SC3CCNCC3)nn12 [Compound 62, N-(2-(1H-pyrazol-1-yl)benzyl)-3-isopropyl-6-(piperidin-4-ylthio)imidazo[1,2-b]pyridazin-8-amine hydrochloride] | < 100 | < 1000 | 1000 to 5000 | < 1000 | 1000 to 5000 | –
CN1CCC[C@H](Oc2cc(Nc3cccc(F)c3)c3ncc(C4CC4)n3n2)C1 [Compound 7, (S)-3-cyclopropyl-N-(3-fluorophenyl)-6-((1-methylpiperidin-3-yl)oxy)imidazo[1,2-b]pyridazin-8-amine] | > 1000 | – | – | – | – | –
CC(C)c1cnc2c(Nc3cccc(C(F)(F)F)c3)cc(SC3CCCNC3)nn12 (centres unmarked) [Compound 57, 3-isopropyl-6-(piperidin-3-ylthio)-N-(3-(trifluoromethyl)phenyl)imidazo[1,2-b]pyridazin-8-amine hydrochloride] | 100 to 1000 | – | – | – | – | –
CC(C)c1cnc2c(N[C@@H](C)c3ccccc3)cc(SC3CCCNC3)nn12 (stereo partly drawn) [Compound 28, 3-isopropyl-N-((S)-1-phenylethyl)-6-(piperidin-3-ylthio) imidazo [1,2-b]pyridazin-8-amine hydrochloride] | < 100 | – | – | – | – | –
CC(C)c1cnc2c(Nc3ccccc3C(F)(F)F)cc(SC3CCCNC3)nn12 (centres unmarked) [Compound 61, 3-isopropyl-6-(piperidin-3-ylthio)-N-(2-(trifluoromethyl)phenyl) imidazo[1,2-b]pyridazin-8-amine hydrochloride] | 100 to 1000 | – | – | – | – | –
c1ccc(CNc2nc(NC3CCNCC3)cn3c(C4CC4)cnc23)cc1 [Compound 31, N8-benzyl-3-cyclopropyl-N6-(piperidin-4-yl)imidazo[1,2-α]pyrazine-6,8-diamine hydrochloride] | > 1000 | – | – | – | – | –
CC(C)c1cnc2c(N[C@@H](C)c3ccccc3)cc(OC3CCNCC3)nn12 [Compound 27, hydrochloride] | 100 to 1000 | – | – | – | – | –
CC(C)c1cnc2c(NCc3ccc(F)cc3C(F)(F)F)cc(SC3CCNCC3)nn12 [Compound 80, N-(4-fluoro-2-(trifluoromethyl)benzyl)-3-isopropyl-6-(piperidin-4-ylthio)imidazo[1,2-b]pyridazin-8-amine hydrochloride] | 100 to 1000 | – | – | – | – | –
CC(C)c1cnc2c(Nc3ccccc3OC(F)(F)F)cc(SC3CCCNC3)nn12 (centres unmarked) [Compound 60, 3-isopropyl-6-(piperidin-3-ylthio)-N-(2-(trifluoromethoxy)phenyl)imidazo[1,2-b]pyridazin-8-amine hydrochloride] | 100 to 1000 | – | – | – | – | –
CC(C)c1cnc2c(Nc3cccc(OC(F)(F)F)c3)cc(SC3CCCNC3)nn12 (centres unmarked) [Compound 58, 3-isopropyl-6-(piperidin-3-ylthio)-N-(3-(trifluoromethoxy)phenyl)imidazo[1,2-b]pyridazin-8-amine hydrochloride] | 100 to 1000 | – | – | – | – | –
CC(C)c1cnc2c(NCc3ccccc3OC(F)F)cc(SC3CCNCC3)nn12 [Compound 66, N-(2-(difluoromethoxy)benzyl)-3-isopropyl-6-(piperidin-4-ylthio)imidazo[1,2-b]pyridazin-8-amine hydrochloride] | < 100 | < 1000 | < 1000 | 1000 to 5000 | < 1000 | –
CN1CCC(Oc2cc(NCc3ccccc3)c3ncc(C4CC4)n3n2)CC1 [Compound 15, N-benzyl-3-cyclopropyl-6-((1-methylpiperidin-4-yl)oxy)imidazo [1,2-b] pyridazin-8-amine] | 100 to 1000 | – | – | – | – | –
CN1CC[C@H](Oc2cc(Nc3cccc(F)c3)c3ncc(C4CC4)n3n2)C1 [Compound 5, (S)-3-cyclopropyl-N-(3-fluorophenyl)-6-((1-methylpyrrolidin-3-yl)oxy)imidazo[1,2-b]pyridazin-8-amine] | 100 to 1000 | – | – | – | – | –
CC(C)c1cnc2c(NCc3ccccc3OC(F)(F)F)cc(OC3CCNCC3F)nn12 (centres unmarked) [Compound 69, 6-((3-fluoropiperidin-4-yl)oxy)-3-isopropyl-N-(2-(trifluoromethoxy)benzyl)imidazo[1,2-b]pyridazin-8-amine hydrochloride] | 100 to 1000 | – | – | – | – | –
CC(C)c1cnc2c(NCc3ccccc3-n3cccn3)nc(SC3CCCNC3)cn12 (stereo not drawn) [Compound 68, N-(2-(1H-pyrazol-1-yl)benzyl)-3-isopropyl-6-(piperidin-3-ylthio)imidazo[1,2-α]pyrazin-8-amine hydrochloride] | < 100 | – | – | – | – | –
COc1ccccc1CNc1cc(SC2CCNCC2F)nn2c(C(C)C)cnc12 (centres unmarked) [Compound 73, 6-((3-fluoropiperidin-4-yl)thio)-3-isopropyl-N-(2-methoxybenzyl)imidazo[1,2-b]pyridazin-8-amine hydrochloride] | < 100 | 1000 to 5000 | 1000 to 5000 | 1000 to 5000 | – | 1000 to 5000
CN1CCC[C@@H](Oc2cc(NCc3ccccc3)c3ncc(C4CC4)n3n2)C1 [Compound 9, (R)—N-benzyl-3-cyclopropyl-6-((1-methylpiperidin-3-yl)oxy)imidazo[1,2-b]pyridazin-8-amine] | 100 to 1000 | – | – | – | – | –
CC(C)c1cnc2c(NCc3ccccc3OC(F)(F)F)cc(OC[C@H]3CNCCO3)nn12 [Compound 47, (R)-3-isopropyl-6-(morpholin-2-ylmethoxy)-N-(2-(trifluoromethoxy)benzyl)imidazo[1,2-b]pyridazin-8-amine hydrochloride] | 100 to 1000 | – | – | – | – | –
